BindingDB's records for doi:10.1074/jbc.M112.442335 (University of Notre Dame, 2013)

Molecular target: T1, Coproheme decarboxylase (Staphylococcus aureus, UniProt Q2YS77)
T1 sequence (Q2YS77 whole entry): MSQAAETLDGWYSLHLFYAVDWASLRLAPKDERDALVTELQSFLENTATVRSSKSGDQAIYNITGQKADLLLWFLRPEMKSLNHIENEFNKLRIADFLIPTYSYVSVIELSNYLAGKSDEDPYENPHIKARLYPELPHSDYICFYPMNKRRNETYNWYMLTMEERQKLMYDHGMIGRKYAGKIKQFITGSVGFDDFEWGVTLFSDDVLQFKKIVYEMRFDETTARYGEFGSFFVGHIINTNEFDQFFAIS
Assay: Fluorescence Titration Assay
Details: pH 6.8
Method: Titrations using fluorescence spectroscopy were carried out on a Jobin Yvon Horiba FluoroMax-3 fluorimeter in scanning mode. Apo-HemQ (5 μM) was diluted in 0.1 M potassium phosphate buffer, pH 6.8, and titrated with stocks of heme (1 mM in0.1 M NaOH) and protoporphyrin IX (1 mM in DMSO) each diluted to 500 μM at 25 °C.

Kd: 2.21 µM
Compound: C=Cc1c(C)c2cc3[nH]c(cc4nc(cc5nc(cc1[nH]2)C(C)=C5CCC(=O)O)C(CCC(=O)O)=C4C)c(C)c3C=C
